According to patent US5026703A, “Peptide oxytocin antagonists” (priority 1990, dated 1991):
Where a name gives a salt, the structure may show the parent alone. Read-outs that look alike come from different tables or passages of the source. *1 amine or outer side, *2 acyl side, *3 side chain or, on linkers, in order; H or OH if unused. Where a SMILES comes first, the peptide text is derived from it. [ ]: non-standard residue; d: D form. X13 = CC[C@H](C)[C@H](NC(=S)[C@@H](Cc1ccccc1)N[*:1])C(=O)[*:2]; X11 = CC(C)(C)OC(=O)CSC1=NN([*:1])[C@H](C(=O)[*:2])CC1; X2 = O=C([C@@H]1[C@@H](O)[C@@H](O)C=NN1[*:1])[*:2]; X8 = O=C([C@@H]1CC(N2CCCC2)C=NN1[*:1])[*:2]; X10 = O=C1CC[C@@H](C(=O)[*:2])N([*:1])N1; Piz(1,6-dehydro) = O=C(O)[C@@H]1CCC=NN1; dPiz(1,6-dehydro) = O=C(O)[C@H]1CCC=NN1; X9 = O=C([C@@H]1C=CC=NN1[*:1])[*:2]; dNMeCha = CN[C@H](CC1CCCCC1)C(=O)O; X5 = O=C([C@@H]1CCCNN1[*:1])[*:2]; X1 = O=C([C@H]1CCCNN1[*:1])[*:2]; dNMeF = CN[C@H](Cc1ccccc1)C(=O)O; dCha = N[C@H](CC1CCCCC1)C(=O)O

Tests used:
uterine OT receptors = target: T1, uterine OT receptors (Rattus norvegicus, UniProt P70536); assay: [3H]OT radioligand binding to uterine OT receptors, crude membrane preparation
T1 construct: from tissue; host or cells: uterus of DES-treated rats, crude membranes
T1 sequence (P70536 1-388): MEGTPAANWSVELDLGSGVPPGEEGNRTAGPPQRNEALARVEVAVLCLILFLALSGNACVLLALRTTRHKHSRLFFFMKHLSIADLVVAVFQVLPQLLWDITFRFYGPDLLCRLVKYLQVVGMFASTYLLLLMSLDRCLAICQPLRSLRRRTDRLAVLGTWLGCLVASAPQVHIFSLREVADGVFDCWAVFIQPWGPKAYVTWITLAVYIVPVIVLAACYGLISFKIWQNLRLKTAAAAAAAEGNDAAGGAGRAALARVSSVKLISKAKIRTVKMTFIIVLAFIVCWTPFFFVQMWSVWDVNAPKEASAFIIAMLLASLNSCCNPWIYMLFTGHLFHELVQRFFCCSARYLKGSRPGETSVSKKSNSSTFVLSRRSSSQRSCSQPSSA
Protocol: The high affinity binding of [^3 H]OT ([tyrosyl, 3,5-[^3 H]OT; 30-60 Ci/mmol; New England Nuclear Boston, Mass.) to uterine OT receptors was based on an assay* using a crude membrane preparation of uteri taken from diethylstilbestrol dipropionate (DES)-treated (0.3 mg/kg, ip; 18-24) rats. Competition studies were conducted at equilibrium (60 min; 22° C.) using 1 nM [^3 H]OT in the following assay buffer: 50 mM Tris-HCl, 5 mM MgCl2, and 0.1% BSA, pH 7.4. Nonspecific binding (10% of the total binding) was determined using 1 μM unlabeled OT and the binding reaction was terminated by filtration through glass fiber filters using a cell harvester (model 7019, Skatron, Inc., Sterling, Va.).
*Fuchs, A-R; Fuchs, F; Soloff, MS. 1985 J. Clin. Endocrinol. Metab. 60:37.

AVP-V2 sites = AVP-V2 sites (Rattus norvegicus, UniProt Q00788); assay: [3H]AVP radioligand binding to rat kidney medulla crude membrane preparation (AVP-V2 sites); conditions: rat kidney medulla membranes; 2 nM [3H]AVP; 30 min at 30° C.; read-out: Receptor Binding Results IC50 (nM) [^3 H]-AVP-V2
AVP-V2 sites, sequence (Q00788 whole entry): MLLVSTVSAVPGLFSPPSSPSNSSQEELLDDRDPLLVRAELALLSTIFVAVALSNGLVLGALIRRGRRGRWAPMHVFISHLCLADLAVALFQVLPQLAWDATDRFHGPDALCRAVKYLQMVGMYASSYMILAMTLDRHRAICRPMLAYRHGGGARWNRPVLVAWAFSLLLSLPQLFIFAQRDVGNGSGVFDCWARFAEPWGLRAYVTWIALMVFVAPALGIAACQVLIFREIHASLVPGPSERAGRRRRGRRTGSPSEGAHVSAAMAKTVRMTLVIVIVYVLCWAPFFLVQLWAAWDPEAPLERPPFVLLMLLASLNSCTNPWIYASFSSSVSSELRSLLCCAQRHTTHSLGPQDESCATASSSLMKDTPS
Protocol: (§1) Nonspecific binding (5-10% of the total binding) was determined using 10 μM unlabeled AVP, and the binding reaction was terminated by filtration as described above for the [^3 H]OT binding assay.
(§2) +Butlen, D; Guillon, G; Rajerison, RM; Jard, S; Sawyer, WH; Manning, M. 1978 Mol Pharmacol 14:1006.

AVP-V1 sites = AVP-V1 sites (Rattus norvegicus, UniProt P30560); assay: [3H]AVP radioligand binding to male rat liver crude membrane preparation (AVP-V1 sites)
AVP-V1 sites, sequence (P30560 whole entry): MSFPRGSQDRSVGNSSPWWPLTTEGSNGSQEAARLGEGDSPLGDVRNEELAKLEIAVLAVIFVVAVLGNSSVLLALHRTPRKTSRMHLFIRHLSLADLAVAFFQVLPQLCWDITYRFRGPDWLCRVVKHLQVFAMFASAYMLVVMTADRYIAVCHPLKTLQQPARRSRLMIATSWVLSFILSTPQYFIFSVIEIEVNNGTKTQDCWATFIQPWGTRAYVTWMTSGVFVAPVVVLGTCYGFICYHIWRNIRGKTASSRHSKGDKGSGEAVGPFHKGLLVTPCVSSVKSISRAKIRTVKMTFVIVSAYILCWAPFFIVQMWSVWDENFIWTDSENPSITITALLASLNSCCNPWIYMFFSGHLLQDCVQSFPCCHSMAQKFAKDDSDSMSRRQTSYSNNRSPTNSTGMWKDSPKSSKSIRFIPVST
Protocol: as §1, §2

[1] = male rat liver membranes, 1 nM [3H]AVP, 30 min at 30° C., read-out: Receptor Binding Results IC50 (nM) [^3 H]-AVP-V1
[2] = uteri of DES-treated rats, 1 nM [3H]OT, 60 min, 22° C., inhibits specific binding by 50%, read-out: Receptor Binding Results IC50 (nM) [3H]OT

| SMILES | IC50 (uterine OT receptors) | IC50 (AVP-V2 sites) | IC50 (AVP-V1 sites; [1]) | IC50 (uterine OT receptors; [2]) | IC50 (AVP-V1 sites) |
| --- | --- | --- | --- | --- | --- |
| CC[C@H](C)[C@@H]1NC(=O)[C@@H](Cc2ccccc2)NC(=O)[C@@H]2CCCN2C(=O)[C@@H](Cc2ccccc2)N(C)C(=O)[C@@H]2CCC(=O)NN2C(=O)[C@H]2CCCNN2C1=O [Example 4, cyclo-[D-Phenylalanyl-L-isoleucyl-D-hexahydro-3-pyridazinecarbonyl-L-hexahydro-6-oxo-3-pyridazinecarbonyl-N-methyl-D-phenylalanyl-L-prolyl]] (cyclo(I[X1][X10][dNMeF]P[dF])) | 217 nM | 18900 nM | 13900 nM |  |  |
| CC[C@H](C)[C@@H]1NC(=O)[C@@H](CC2CCCCC2)NC(=O)[C@@H]2CCCN2C(=O)[C@@H](CC2CCCCC2)N(C)C(=O)[C@@H]2CCCNN2C(=O)[C@H]2CCCNN2C1=O [Example 1, cyclo-[D-3-Cyclohexylalanyl-L-isoleucyl-D-hexahydro-3-pyridazinecarbonyl-L-hexahydro-3-pyridazinecarbonyl-3-cyclohexyl-N-methyl-D-alanyl-L-prolyl]] (cyclo(I[X1][X5][dNMeCha]P[dCha])) |  | 14800 nM | 2400 nM | 725 nM |  |
| CC[C@H](C)[C@@H]1NC(=O)[C@@H](Cc2ccccc2)NC(=O)[C@@H]2CCCN2C(=O)[C@@H](Cc2ccccc2)N(C)C(=O)[C@@H]2C=CC=NN2C(=O)[C@H]2CCC=NN2C1=O [Example 8, cyclo-[D-Phenylalanyl-L-isoleucyl-D-2,3,4,5-tetrahydro-3-pyridazinecarbonyl-L-2,3-dihydro-3-pyridazine-carbonyl-N-methyl-D-phenylalanyl-L-prolyl]] (cyclo(I[dPiz(1,6-dehydro)][X9][dNMeF]P[dF])) |  | 1350 nM | 1410 nM | 20 nM |  |
| CC[C@H](C)[C@@H]1NC(=O)[C@@H](Cc2ccccc2)NC(=O)[C@@H]2CCCN2C(=O)[C@@H](Cc2ccccc2)N(C)C(=O)[C@@H]2CCC(SCC(=O)OC(C)(C)C)=NN2C(=O)[C@H]2CCC=NN2C1=O [Example 9, cyclo-[D-Phenylalanyl-L-isoleucyl-D-2,3,4,5-tetrahydro-3-pyridazinecarbonyl-6-[[2-(1,1-dimethylethoxy)-2-oxoethyl]thio]-L-2,3,4,5-tetrahydro-3-pyridazine-carbonyl-N-methyl-D-phenylalanyl-L-prolyl]] (cyclo(I[dPiz(1,6-dehydro)][X11][dNMeF]P[dF])) |  | 10000 nM |  | 564 nM | 10000 nM |
| CC[C@H](C)[C@@H]1NC(=S)[C@@H](Cc2ccccc2)NC(=O)[C@@H]2CCCN2C(=O)[C@@H](Cc2ccccc2)N(C)C(=O)[C@@H]2CCC=NN2C(=O)[C@H]2CCC=NN2C1=O [Example 10, cyclo-[D-Thiophenylalanyl-L-isoleucyl-D-2,3,4,5-tetrahydro-3-pyridazinecarbonyl-L-2,3,4,5-tetrahydro-3-pyridazinecarbonyl-N-methyl-D-phenylalanyl-L-prolyl]] (cyclo(P[X13][dPiz(1,6-dehydro)][Piz(1,6-dehydro)][dNMeF])) |  | 270 nM | 300 nM | 1 nM |  |
| CC[C@H](C)[C@@H]1NC(=O)[C@@H](Cc2ccccc2)NC(=O)[C@@H]2CCCN2C(=O)[C@@H](Cc2ccccc2)N(C)C(=O)[C@@H]2[C@@H](O)[C@@H](O)C=NN2C(=O)[C@H]2CCC=NN2C1=O [Example 13, cyclo-[D-Phenylalanyl-L-isoleucyl-D-2,3,4,5-tetrahydro-3-pyridazinecarbonyl-(3α,4β,5β)-4,5-dihydroxy-L-2,3,4,5-tetrahydro-3-pyridazinecarbonyl-N-methyl-D-phenylalanyl-L-prolyl]] (cyclo(I[dPiz(1,6-dehydro)][X2][dNMeF]P[dF])) |  | > 10000 nM | 10000 nM | 785 nM |  |
| CC[C@H](C)[C@@H]1NC(=O)[C@@H](Cc2ccccc2)NC(=O)[C@@H]2CCCN2C(=O)[C@@H](Cc2ccccc2)N(C)C(=O)[C@@H]2CC(N3CCCC3)C=NN2C(=O)[C@H]2CCC=NN2C1=O (stereo partly drawn) [Example 15, cyclo-[D-Phenylalanyl-L-isoleucyl-D-2,3,4,5-tetrahydro-3-pyridazinecarbonyl-5-(1-pyrolidinyl)-L-2,3,4,5-tetrahydro-3-pyridazinecarbonyl-N-methyl-D-phenylalanyl-L-prolyl] trifluoroacetate] (cyclo(I[dPiz(1,6-dehydro)][X8][dNMeF]P[dF])) |  | 11000 nM | 8800 nM | 600 nM |  |
